For data set [1] the following is noted: cited from earlier work.
Data set [2] deals with protein degradation in muscle. The experiment in a line: Urinary 3-methylhistidine to creatinine ratio after an acute exercise bout. It is filed as in vivo, human. Here is the method: Subjects: We conducted a study at the Iowa State University Health and Human Performance Laboratory; this study was approved by the Iowa State University Institutional Review Board, and was registered at ClinicalTrials.gov (NCT01150526). We recruited 12 men and 13 women between the ages of 20 and 36 from the Iowa State University community and surrounding area.
Treatments: The experimental design is depicted in FIG. 8.
Five treatments were administered as follows: Treatment 1: Placebo. This group received a placebo capsule and a placebo syringe dosage at each dosage administration. Treatment 2: CaHMB pre-exercise. This group received a CaHMB capsule and a placebo syringe dosage 30 min prior to the acute exercise bout. The remaining additional dosages during the study consisted of one placebo capsule and one placebo syringe dosage. Treatment 3: HMB-acid gel pre-exercise. This group received a placebo capsule and a syringe dosage of HMB-acid gel 30 min prior to the acute exercise bout. The remaining additional dosages during the study consisted of one placebo capsule and one placebo syringe dosage. Treatment 4: CaHMB pre- and post-exercise. This group received a CaHMB capsule and a placebo syringe dosage at all administration times during the study. Treatment 5: HMB-acid gel pre- and post-exercise. This group received a syringe dosage of HMB-acid gel and one placebo capsule at all administration times during the study.
To blind the treatments to both the researchers and subjects, each subject took a capsule and syringe dosage of supplement at each administration. The capsules contained either one gram of calcium lactate (Placebo) or one gram of calcium β-hydroxy-β-methylbutryate (CaHMB). The syringe dosages were formulated to be similar in taste and appearance and contained either 0.8 g of corn syrup (Placebo) or 0.8 g of β-hydroxy-β-methylbutryate free acid, the same amount of HMB as in the capsule dosage. The 3 daily doses provided the same total HMB dosage (2.4 g as calcium HMB in the capsules or 2.4 g as HMB free acid in the syringes).
Eccentric Exercise Bout: Subjects refrained from vigorous exercise for three days before reporting to the laboratory. All subjects were studied after an overnight fast. […] Subjects then consumed their assigned supplement and 30 minutes later the eccentric exercise session was performed. The exercise consisted of 50 maximal effort contractions of knee extensors while attempting to resist the Biodex lever arm as it moves the knee joint from full extension to 90 degrees flexion; this is similar to letting a heavy weight down slowly while in a seated position. Each contraction lasted about 2 seconds and 12 seconds were allowed between contractions. This protocol was performed on the right leg followed by the left leg. The subjects received 2 more daily dosages of treatment (placebo or HMB) with instructions to take the dosages at lunch and dinner. For the next 4 days the subjects returned to the laboratory fasted each morning, had blood taken and urine collected and then consumed the morning dosage of their supplement. The subjects were again given the 2 remaining daily supplement dosages with instructions to take them at lunch and dinner.
Serum and Urine Samples: A fasting blood sample was taken from a superficial forearm vein each morning when the subjects reported to the laboratory for testing. Additionally a clean catch urine sample was collected at this time. Serum CPK was analyzed by a commercial laboratory (Quest Diagnostics, Madison N.J.). Urine 3-Methylhistidine (3MH) was analyzed by a previously published GC/MS method (9). Urinary creatinine was analyzed by colorimetric assay (Cayman Chemical Company, Ann Arbor, Mich.). The urinary 3MH data was normalized to urinary creatinine and expressed as 3MH:creatinine ratio, μmol:mg.
Statistics: Data were analyzed using the mixed model procedure in Statistical Analysis System for Windows (Release 9.1.3, SAS Institute, Cary, N.C.). […]

With `CC(C)(O)CC(=O)[O-].CC(C)(O)CC(=O)[O-].[Ca+2]` [CaHMB, calcium β-hydroxy-β-methylbutryate, reference compound], the “time of peak plasma HMB levels after ingestion” value in data set [1] (depending upon the dosage) was 60 to 120 min. The “plasma peak levels, 3 grams versus 1 gram dose” value in data set [1] (oral, Vukovich et al) is on record as 3 times. The “time to peak plasma levels” value in data set [1] (typical 1 gram dosage) was 2 h. In addition, the “3MH:Cr” value in data set [2] (Baseline, dosed pre- and post exercise (Treatments 4, 5)) came to 0.205 ± 0.025 µmol/mg; in data set [2] (Baseline, dosed pre-exercise only (Treatments 2, 3)), 0.164 ± 0.037 µmol/mg; in data set [2] (at 24 h, dosed pre- and post exercise (Treatments 4, 5)), 0.203 ± 0.039 µmol/mg; in data set [2] (at 24 h, dosed pre-exercise only (Treatments 2, 3)), 0.190 ± 0.027 µmol/mg; in data set [2] (at 48 h, dosed pre- and post exercise (Treatments 4, 5)), 0.220 ± 0.027 µmol/mg; in data set [2] (at 48 h, dosed pre-exercise only (Treatments 2, 3)), 0.240 ± 0.052 µmol/mg. In addition, the “3MH:Cr” value amounted to 0.231 ± 0.037 µmol/mg in data set [2] (at 72 h, dosed pre- and post exercise (Treatments 4, 5)); 0.204 ± 0.058 µmol/mg in data set [2] (at 72 h, dosed pre-exercise only (Treatments 2, 3)); 0.269 ± 0.038 µmol/mg in data set [2] (at 96 h, dosed pre- and post exercise (Treatments 4, 5)); 0.187 ± 0.029 µmol/mg in data set [2] (at 96 h, dosed pre-exercise only (Treatments 2, 3)).

These data come from patent US20210113501A1, “METHOD OF ADMINISTERING BETA-HYDROXY-BETA-METHYLBUTYRATE (HMB)” (Metabolic Technologies, Inc., priority 2009, published 2021).
